From patent US6576657B2, “Amidino derivatives and their use as thrombin inhibitors” (AstraZeneca AB, priority 1997, dated 2003)

Molecular target: T1, Human thrombin (Homo sapiens, UniProt P00734)
T1 construct: conversion of the proenzyme prothrombin to the active enzyme thrombin; purchased Sigma Chem Co T 6769
Experiment: Test A: determination of thrombin clotting time (TT)
Type: biochemical
Conditions: concentration of inhibitor that doubles the thrombin clotting time for human plasma
Procedure: Determination of Thrombin Clotting Time (TT)
The inhibitor solution (25 μL) was incubated with plasma (25 μL) for three minutes. Human thrombin (T 6769; Sigma Chem Co) in buffer solution, pH 7.4 (25 μL) was then added and the clotting time measured in an automatic device (KC 10; Amelung).
The clotting time in seconds was plotted against the inhibitor concentration, and the IC50TT was determined by interpolation.
IC50TT is the concentration of inhibitor in the test that doubles the thrombin clotting time for human plasma.

Q: For COc1ccc2c(c1)C(O)(C(=O)N1CCC1C(=O)N(C)Cc1ccc(C(=N)N)cc1)CCC2 (single isomer, unassigned) [Example 37, (S)- or (R)-1-Hydroxy-7-methoxytetralin-1-yl-C(O)-Aze-N(Me)-Bzl-4-C(NH2)NH×HOAc], which IC50 is on record?
A: The IC50 was under 300 nM.

Q: N=C(N)c1ccc(CNC(=O)[C@@H]2CCN2C(=O)C2(O)c3ccccc3-c3ccccc32)cc1 [Example 38, 9-Hydroxyfluoren-9-yl-C(O)-Aze-Pab×HOAc] was tested. Which IC50 did it give?
A: Its IC50 is under 300 nM.
